# From paper PMC8507198 (Poultry Science, 2021)
# Experiments:
# [1] = tested on: chickens; conditions: ref Smith et al., 2006; cited from earlier work
# [2] = tested on: rats; conditions: administration of NPS, ref Zhang et al., 2014; cited from earlier work
# [3] = tested on: rats; conditions: ref Smith et al., 2006; cited from earlier work
# [4] = tested on: rodents; conditions: central administration, cited from earlier work
# [5] = tested on: chicken NPSR1; test: pGL3-NFAT-RE-luciferase reporter assay; type: cell-based; conditions: 2-APB (100 μM) added 0.5 h before cNPS20 (10 nM, 6 h); CHO cells expressing cNPSR1; P<0.01 vs. peptide treatment; Figure 4D
# [6] = tested on: chicken NPSR1; test: pGL3-CRE-luciferase reporter assay; type: cell-based; conditions: H89 (10 μM) added 0.5 h before cNPS20 (10 nM, 6 h); CHO cells expressing cNPSR1; P<0.01 vs. peptide treatment; Figure 4E
compound,measurement,setting,value
neuropeptide S (SFRNGVGSGIKKTSFRRAKS; printed: Ser-Phe-Arg-Asn-Gly- Val-Gly-Ser-Gly-Ile-Lys-Lys-Thr-Ser-Phe-Arg-Arg-Ala-Lys-Ser) [NPS],"Hypothalamus-pituitary-adrenal axis and food intake, chickens",[1],stimulate the hypothalamus-pituitary-adrenal axis and inhibit food intake in rats and chickens
same,Anxiolytic and antinociceptive effects,[2],"anxiolytic, and antinociceptive effects in rats"
same,ACTH and corticosterone secretion (hypothalamic-pituitary-adrenal axis activity),[3],stimulation of adrenocorticotropic hormone (ACTH) and corticosterone secretion in rats
same,"Hypothalamus-pituitary-adrenal axis and food intake, rats",[3],stimulate the hypothalamus-pituitary-adrenal axis and inhibit food intake in rats and chickens
same,Length of ketamine-induced anesthesia,"[4]; ref Kushikata et al., 2011",decreased the length of ketamine-induced anesthesia
same,Memory,"[4]; ref Okamura et al., 2011",enhanced memory
same,Anxiety-related effect,"[4]; ref Xu et al., 2004",anxiolytic effects
NCCOB(c1ccccc1)c1ccccc1 [2-APB],Effect on cNPS20-induced NFAT-RE luciferase activity,[5],could block cNPS20-induced luciferase activity of CHO cells expressing cNPSR1
O=S(=O)(NCCNC/C=C/c1ccc(Br)cc1)c1cccc2cnccc12 [H89],Effect on cNPS20-induced CRE luciferase activity,[6],significantly inhibited
